Test results: the supplement of paper PMC11208160

Assay: recombinant UMI read abundance after kanamycin selection (control-corrected) (log10(CPM+1)); higher = more efficient recombination; extreme values may be limits of the assay; sequences stand for … in AGTGCAGAGAAAATCGGCCAGTTTTCTCTGCCTGCAGTCCGCATGCCGTGGGACCCCTTGGGTTCTAACCTGTTGCCTAGATTTATGCAGCGGACTGCCTTTCTCCCAAAGTGATAAACCGG…AGGTTGGTTTCACT; site = the 11-nt donor
In short: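 Reported values are log10(CPM+1) from a pooled Escherichia coli screen of donor and donor-binding-loop pairs for the IS621 bridge recombinase. Selection used IPTG (0.07 mM) plus kanamycin, against unselected plating, each in two replicates. Recombinant UMIs were amplified across the donor–target junction, sequenced, converted to CPM, averaged over replicates and scaled by control-derived factors.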
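Also: IS621 bridge recombinase in Escherichia coli cells against a fixed T5 target plasmid.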

Sequence	recombinant UMI read abundance (log10)
TTAGAACCATGGACCGGTTTTCCCGGTAATCCGTATTTGCC (site TTAGAACCTGG)	0
TTAGATCCATGGACCGGTTTTCCCGGTAATCCGTATTTGAG (site TTAGATCCTCT)	0.358
TTAGCAACATGGACCGGTTTTCCCGGTAATCCGTATTTGAG (site TTAGCAACTCT)	0.835
TTAGCGGCATGGACCGGTTTTCCCGGTAATCCGTATTTGTG (site TTAGCAGCTCA)	0.356
TTAGCGGCATGGACCGGTTTTCCCGGTAATCCGTATTTGTG (site TTAGCCGCTCA)	0.00441
TTAGCGGCATGGACCGGTTTTCCCGGTAATCCGTATTTGTG (site TTAGCGGCTCA)	1.51
TTAGCGGCATGGACCGGTTTTCCCGGTAATCCGTATTTGTG (site TTAGCTGCTCA)	0.0387
TTAGCTGCATGGACCGGTTTTCCCGGTAATCCGTATTTGTT (site TTAGCTGCTAA)	1.08
TTAGCTGCATGGACCGGTTTTCCCGGTAATCCGTATTTGTT (site TTAGCTGCTCA)	0.187
TTAGCTGCATGGACCGGTTTTCCCGGTAATCCGTATTTGTT (site TTAGCTGCTGA)	0.423
TTAGCTGCATGGACCGGTTTTCCCGGTAATCCGTATTTGTT (site TTAGCTGCTTA)	0.0119
TTAGGACCATGGACCGGTTTTCCCGGTAATCCGTATTTGCA (site TTAGGACCTTG)	0.00659
TTAGGTACATGGACCGGTTTTCCCGGTAATCCGTATTTGAC (site ATAGGTACTGT)	0.0067
TTAGGTACATGGACCGGTTTTCCCGGTAATCCGTATTTGAC (site CTAGGTACTGT)	0
TTAGGTACATGGACCGGTTTTCCCGGTAATCCGTATTTGAC (site GTAGGTACTGT)	0
TTAGGTACATGGACCGGTTTTCCCGGTAATCCGTATTTGAC (site TTAGGTACTGT)	1.98
TTAGTATCATGGACCGGTTTTCCCGGTAATCCGTATTTGTC (site CTAGTATCTGT)	0
TTAGTATCATGGACCGGTTTTCCCGGTAATCCGTATTTGTC (site TTAGTATCTGA)	1.77
TTATAAGCATGGACCGGTTTTCCCGGTAATCCGTATTTGAG (site TTATAAGCTCT)	1.65
TTATACCCATGGACCGGTTTTCCCGGTAATCCGTATTTGAG (site TTATACCCTCT)	0.00206
TTATCATCATGGACCGGTTTTCCCGGTAATCCGTATTTGCT (site CGATCATCTAG)	0.595
TTATCATCATGGACCGGTTTTCCCGGTAATCCGTATTTGCT (site TTATCATCTAG)	1.98
TTATGAGCATGGACCGGTTTTCCCGGTAATCCGTATTTGGG (site TAATGAGCTCC)	0.0152
TTATGAGCATGGACCGGTTTTCCCGGTAATCCGTATTTGGG (site TCATGAGCTCC)	0.0145
TTATGAGCATGGACCGGTTTTCCCGGTAATCCGTATTTGGG (site TGATGAGCTCC)	0.0171

Sequence	recombinant UMI read abundance (log10)
TTATGAGCATGGACCGGTTTTCCCGGTAATCCGTATTTGGG (site TTATGAGCTCC)	0.0057
TTATGCGCATGGACCGGTTTTCCCGGTAATCCGTATTTGCC (site TTATGCGCTGG)	1.93
TTATTACCATGGACCGGTTTTCCCGGTAATCCGTATTTGGG (site TTATTACCTCC)	0.0164
TTATTTACATGGACCGGTTTTCCCGGTAATCCGTATTTGAA (site TTATTTACTTT)	0.00385
TTCAACCCATGGACCGGTTTTCCCGGTAATCCGTATTTGGA (site TTCAACCCTTC)	0
TTCAACTCATGGACCGGTTTTCCCGGTAATCCGTATTTGTC (site TTCAACTCTGA)	0.222
TTCAATTCATGGACCGGTTTTCCCGGTAATCCGTATTTGCC (site TACAATTCTGG)	0
TTCAATTCATGGACCGGTTTTCCCGGTAATCCGTATTTGCC (site TCCAATTCTGG)	0
TTCAATTCATGGACCGGTTTTCCCGGTAATCCGTATTTGCC (site TGCAATTCTGG)	0
TTCAATTCATGGACCGGTTTTCCCGGTAATCCGTATTTGCC (site TTCAATTCTGG)	0
TTCACGCCATGGACCGGTTTTCCCGGTAATCCGTATTTGAC (site TTCACGCCTGT)	0
TTCACTTCATGGACCGGTTTTCCCGGTAATCCGTATTTGTG (site TTCACTTCTCA)	0.00654
TTCAGCTCATGGACCGGTTTTCCCGGTAATCCGTATTTGTT (site TTCAGCTCTAA)	0.00312
TTCATGACATGGACCGGTTTTCCCGGTAATCCGTATTTGCG (site TTCATGACTCG)	0
TTCCCGCCATGGACCGGTTTTCCCGGTAATCCGTATTTGCT (site TTCCCGCCTAG)	0.552
TTCCTCACATGGACCGGTTTTCCCGGTAATCCGTATTTGCT (site TTCCTCACTAG)	0.293
TTCGAGACATGGACCGGTTTTCCCGGTAATCCGTATTTGCA (site TTCGAGACTTG)	0.725
TTCGCCTCATGGACCGGTTTTCCCGGTAATCCGTATTTGAT (site TTCGCCTCTAT)	0.521
TTCGCGACATGGACCGGTTTTCCCGGTAATCCGTATTTGAA (site TTCGCGACTTT)	0.0402
TTCGCTTCATGGACCGGTTTTCCCGGTAATCCGTATTTGTG (site TTCGCTTCTCA)	0
TTCGGCACATGGACCGGTTTTCCCGGTAATCCGTATTTGAG (site TTCGGCACTCT)	0.00333
TTCGGGGCATGGACCGGTTTTCCCGGTAATCCGTATTTGTC (site TTCGGGGCTGA)	0
TTCGTCCCATGGACCGGTTTTCCCGGTAATCCGTATTTGTC (site TTCGTCCCTGA)	0
TTCTACACATGGACCGGTTTTCCCGGTAATCCGTATTTGCT (site ATCTACACTAG)	0.34
TTCTACACATGGACCGGTTTTCCCGGTAATCCGTATTTGCT (site CTCTACACTAG)	1.12

Sequence	recombinant UMI read abundance (log10)
TTCTACACATGGACCGGTTTTCCCGGTAATCCGTATTTGCT (site GTCTACACTAG)	0.569
TTCTACACATGGACCGGTTTTCCCGGTAATCCGTATTTGCT (site TTCTACACTAG)	1.16
TTCTAGGCATGGACCGGTTTTCCCGGTAATCCGTATTTGGT (site TACTAGGCTAC)	0.00535
TTCTAGGCATGGACCGGTTTTCCCGGTAATCCGTATTTGGT (site TCCTAGGCTAC)	0.0191
TTCTAGGCATGGACCGGTTTTCCCGGTAATCCGTATTTGGT (site TGCTAGGCTAC)	0.0112
TTCTAGGCATGGACCGGTTTTCCCGGTAATCCGTATTTGGT (site TTCTAGGCTAC)	0.0102
TTCTAGTCATGGACCGGTTTTCCCGGTAATCCGTATTTGAC (site TTCTAGTCTGT)	0
TTCTCCGCATGGACCGGTTTTCCCGGTAATCCGTATTTGAA (site TTCTCCGCTTT)	0.0825
TTCTCCTCATGGACCGGTTTTCCCGGTAATCCGTATTTGTT (site TTCTCCTCTAA)	0.151
TTCTCTTCATGGACCGGTTTTCCCGGTAATCCGTATTTGTG (site TTCTCTTCTCA)	0.00971
TTCTGGGCATGGACCGGTTTTCCCGGTAATCCGTATTTGCA (site TTCTGGGCTTG)	0.345
TTCTGTCCATGGACCGGTTTTCCCGGTAATCCGTATTTGCG (site TTCTGTCCTCG)	0.00535
TTCTTCCCATGGACCGGTTTTCCCGGTAATCCGTATTTGGC (site TTCTTCCCTGC)	0
TTCTTGACATGGACCGGTTTTCCCGGTAATCCGTATTTGCT (site TACTTGACTAG)	0.126
TTCTTGACATGGACCGGTTTTCCCGGTAATCCGTATTTGCT (site TCCTTGACTAG)	0.513
TTCTTGACATGGACCGGTTTTCCCGGTAATCCGTATTTGCT (site TGCTTGACTAG)	0
TTCTTGACATGGACCGGTTTTCCCGGTAATCCGTATTTGCT (site TTCTTGACTAG)	0.68
TTGAACACATGGACCGGTTTTCCCGGTAATCCGTATTTGAC (site TTGAACACTGT)	0.849
TTGAATACATGGACCGGTTTTCCCGGTAATCCGTATTTGCA (site TAGAATACTTG)	1.77
TTGAATACATGGACCGGTTTTCCCGGTAATCCGTATTTGCA (site TCGAATACTTG)	0
TTGAATACATGGACCGGTTTTCCCGGTAATCCGTATTTGCA (site TGGAATACTTG)	0
TTGAATACATGGACCGGTTTTCCCGGTAATCCGTATTTGCA (site TTGAATACTTG)	0.467
TTGACAACATGGACCGGTTTTCCCGGTAATCCGTATTTGAC (site TTGACAACTGT)	1.62
TTGACTCCATGGACCGGTTTTCCCGGTAATCCGTATTTGCT (site TTGACTCCTAG)	0.111
TTGAGCACATGGACCGGTTTTCCCGGTAATCCGTATTTGGA (site TTGAGCACTTC)	0.207
